The results in this text go back to US20240408119A1, “DELIVERY OF THERAPEUTIC ALKALOID COMPOUNDS” (priority 2022, published 2024).

The nature of this data set: Plasma Stability Assay (Example A3), human plasma. The data set is classed as in vitro ADME. The settings on record: prodrug remaining, 10 μM, 37° C. From the text:
The data is represented in the table below.

With `COc1ccc([C@@]23CCC(OP4(=O)OCC(C)(C)CO4)=C[C@@H]2N(C)CC3)cc1OC` [Compound 323, 2-[[(3aS,7aS)-3a-(3,4-dimethoxyphenyl)-1-methyl-3,4,5,7a-tetrahydro-2H-indol-6-yl]oxy]-5,5-dimethyl-1,3,2λ^5-dioxaphosphinane 2-oxide], the “Human Plasma Prodrug (%)” value reads like this: (0 min) 100.00%; (10 min) 86.9%; (30 min) 70.8%; (60 min) 52.7%; (120 min) 27.0%; (240 min) 9.3%.
